Measured values reported in ChEMBL document CHEMBL1201862, “PubChem BioAssay data set” (2004).
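1) Cells in 96-well plates. 2) Compound, 48 h, 5 concentrations. 3) Linear interpolation between surrounding doses. 4) Unreached endpoint = highest concentration. At the GI50, growth is halved.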 The source made the active and inactive calls. No stated cut-off is given here; in the data, active = GI50 up to about 1.1 µM and inactive = higher.

Legend:
Assay in all cases: NCI anticancer screen, dose series, 48 h
SK-MEL-28 = tested on: SK-MEL-28
MDA-N = tested on: MDA-N
UACC-257 = tested on: UACC-257
U-251 = tested on: U-251
NCI-H522 = tested on: NCI-H522
SN12C = tested on: SN12C
SR = tested on: SR
KM12 = tested on: KM12
786-0 = tested on: 786-0
SF-295 = tested on: SF-295
PC-3 = tested on: PC-3
HOP-62 = tested on: HOP-62
UACC-62 = tested on: UACC-62
A498 = tested on: A498
MCF7 = tested on: MCF7
K562 = tested on: K562
OVCAR-8 = tested on: OVCAR-8
SF-539 = tested on: SF-539
NCI-H23 = tested on: NCI-H23
SNB-19 = tested on: SNB-19

Measured: GI50

CN(C)CCCNC(=O)N/N=C/c1ccc([N+](=O)[O-])cc1
inactive: SK-MEL-28 > 100 µM | MDA-N 82.4 µM | UACC-257 > 100 µM | U-251 > 100 µM | NCI-H522 > 100 µM | SN12C > 100 µM | SR > 100 µM | KM12 95.3 µM | 786-0 > 100 µM | SF-295 78.2 µM | PC-3 > 100 µM | HOP-62 > 100 µM | UACC-62 > 100 µM | A498 66.4 µM | MCF7 53.1 µM | K562 > 100 µM | OVCAR-8 > 100 µM | SF-539 82.2 µM | NCI-H23 > 100 µM | SNB-19 > 100 µM

Clc1cc(Cl)cc(/N=C/C=C/Nc2cc(Cl)cc(Cl)c2)c1
inactive: SK-MEL-28 25.3 µM | MDA-N 19.4 µM | UACC-257 33.7 µM | U-251 17.6 µM | NCI-H522 14.7 µM | SN12C 17.4 µM | SR 31.8 µM | KM12 16.2 µM | 786-0 17.3 µM | SF-295 23 µM | PC-3 16.4 µM | HOP-62 23.7 µM | UACC-62 19.7 µM | A498 21 µM | MCF7 13.4 µM | K562 23.6 µM | OVCAR-8 20.4 µM | SF-539 21.6 µM | NCI-H23 14.2 µM | SNB-19 21.4 µM

O=S(=O)(c1ccccc1)C1CN(Cc2ccccc2)CCN(Cc2ccccc2)C1
inactive: SK-MEL-28 > 71 µM | MDA-N 6.46 µM | UACC-257 26.6 µM | U-251 33 µM | NCI-H522 8 µM | SN12C 32.4 µM | SR 7.76 µM | KM12 58.3 µM | 786-0 > 74 µM | SF-295 73.8 µM | PC-3 8.71 µM | HOP-62 > 76.2 µM | UACC-62 11.4 µM | A498 > 100 µM | MCF7 36.8 µM | K562 5.97 µM | OVCAR-8 14.4 µM | SF-539 77.6 µM | NCI-H23 15.7 µM | SNB-19 > 60.4 µM
